PubChem BioAssay (NCI)
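Values below derive from 48-hour exposures of cells grown in 96-well plates, with endpoints linearly interpolated between the two concentrations bracketing the appropriate inhibition level. At the GI50, growth is halved. TGI denotes the concentration required for complete inhibition of growth.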

Columns and labels:
Assay in all cases: DTP human tumour cell line panel, 48 h
RPMI-8226 leukemia = system: RPMI-8226 leukemia
MCF7 breast = system: MCF7 breast
M14 melanoma = system: M14 melanoma
SK-MEL-2 melanoma = system: SK-MEL-2 melanoma
786-0 renal = system: 786-0 renal
HL-60(TB) leukemia = system: HL-60(TB) leukemia
HS 578T breast = system: HS 578T breast
LOX IMVI melanoma = system: LOX IMVI melanoma
HCC-2998 colon = system: HCC-2998 colon
T-47D breast = system: T-47D breast
SF-295 CNS = system: SF-295 CNS
SK-MEL-28 melanoma = system: SK-MEL-28 melanoma
OVCAR-8 ovarian = system: OVCAR-8 ovarian
SNB-75 CNS = system: SNB-75 CNS
NCI-H226 lung = system: NCI-H226 lung
NCI/ADR-RES ovarian = system: NCI/ADR-RES ovarian
OVCAR-5 ovarian = system: OVCAR-5 ovarian
IGROV1 ovarian = system: IGROV1 ovarian
A549 NSCLC = system: A549 NSCLC
UACC-62 melanoma = system: UACC-62 melanoma
SK-OV-3 ovarian = system: SK-OV-3 ovarian
U251 CNS = system: U251 CNS
SW-620 colon = system: SW-620 colon
BT-549 breast = system: BT-549 breast
OVCAR-3 ovarian = system: OVCAR-3 ovarian
SF-539 CNS = system: SF-539 CNS
MDA-MB-435 = system: MDA-MB-435
HOP-92 NSCLC = system: HOP-92 NSCLC
DU-145 prostate = system: DU-145 prostate
KM12 colon = system: KM12 colon
SF-268 CNS = system: SF-268 CNS
HOP-62 NSCLC = system: HOP-62 NSCLC
MDA-MB-231 breast = system: MDA-MB-231 breast
SNB-19 CNS = system: SNB-19 CNS
ACHN renal = system: ACHN renal
SK-MEL-5 melanoma = system: SK-MEL-5 melanoma
MOLT-4 leukemia = system: MOLT-4 leukemia
NCI-H23 lung = system: NCI-H23 lung
CAKI-1 renal = system: CAKI-1 renal
EKVX NSCLC = system: EKVX NSCLC
SN12C renal = system: SN12C renal
TK-10 renal = system: TK-10 renal
CCRF-CEM leukemia = system: CCRF-CEM leukemia
UO-31 renal = system: UO-31 renal
COLO 205 colon = system: COLO 205 colon
UACC-257 melanoma = system: UACC-257 melanoma
RXF 393 renal = system: RXF 393 renal
SR leukemia = system: SR leukemia
HCT-15 colon = system: HCT-15 colon
NCI-H522 lung = system: NCI-H522 lung
MALME-3M melanoma = system: MALME-3M melanoma
PC-3 prostate = system: PC-3 prostate
HCT-116 colon = system: HCT-116 colon
HT29 colon = system: HT29 colon
OVCAR-4 ovarian = system: OVCAR-4 ovarian
NCI-H460 lung = system: NCI-H460 lung
A498 renal = system: A498 renal
MDA-N = system: MDA-N
K-562 leukemia = system: K-562 leukemia

## NC(N)=NN=c1c(=O)c2ccccc2c1=O
RPMI-8226 leukemia
  GI50: 5.7 µM
  TGI: 29.6 µM
MCF7 breast
  GI50: 8.89 µM
  TGI: 27.9 µM
M14 melanoma
  GI50: 2000 nM
  TGI: 3.46 µM
SK-MEL-2 melanoma
  GI50: 20.7 µM
  TGI: 40.1 µM
786-0 renal
  GI50: 19.1 µM
  TGI: 33.3 µM
HL-60(TB) leukemia
  GI50: 21.5 µM
  TGI: 48.6 µM
HS 578T breast
  GI50: 10.1 µM
  TGI: > 100 µM
LOX IMVI melanoma
  GI50: 1580 nM
  TGI: 3.25 µM
HCC-2998 colon
  GI50: 14.2 µM
  TGI: 28 µM
T-47D breast
  GI50: 23.5 µM
  TGI: 50.4 µM
SF-295 CNS
  GI50: 13.6 µM
  TGI: 27.7 µM
SK-MEL-28 melanoma
  GI50: 2000 nM
  TGI: 3.88 µM
OVCAR-8 ovarian
  GI50: 10.1 µM
  TGI: 22.5 µM
SNB-75 CNS
  GI50: 11.4 µM
  TGI: 23.7 µM
NCI-H226 lung
  GI50: 14.8 µM
  TGI: 28.1 µM
NCI/ADR-RES ovarian
  GI50: 10.4 µM
  TGI: 31.7 µM
OVCAR-5 ovarian
  GI50: 17.5 µM
  TGI: 32.5 µM
IGROV1 ovarian
  GI50: 17.2 µM
  TGI: 35.3 µM
A549 NSCLC
  GI50: 12.4 µM
  TGI: 30.5 µM
UACC-62 melanoma
  GI50: 12.7 µM
  TGI: 25.8 µM
SK-OV-3 ovarian
  GI50: 19.6 µM
  TGI: 33.8 µM
U251 CNS
  GI50: 4.36 µM
  TGI: 15.8 µM
SW-620 colon
  GI50: 1960 nM
  TGI: 4.76 µM
BT-549 breast
  GI50: 15.7 µM
  TGI: 29.2 µM
OVCAR-3 ovarian
  GI50: 13 µM
  TGI: 26.4 µM
SF-539 CNS
  GI50: 5.67 µM
  TGI: 18 µM
MDA-MB-435
  GI50: 1950 nM
  TGI: 3.71 µM
HOP-92 NSCLC
  GI50: 19.3 µM
  TGI: 34.9 µM
DU-145 prostate
  GI50: 1900 nM
  TGI: 3.39 µM
KM12 colon
  GI50: 3.34 µM
  TGI: 10.7 µM
SF-268 CNS
  GI50: 2060 nM
  TGI: 3.81 µM
HOP-62 NSCLC
  GI50: 9 µM
  TGI: 21 µM
MDA-MB-231 breast
  GI50: 16 µM
  TGI: 33.7 µM
SNB-19 CNS
  GI50: 1720 nM
  TGI: 3.25 µM
ACHN renal
  GI50: 6.46 µM
  TGI: 19.2 µM
SK-MEL-5 melanoma
  GI50: 2930 nM
  TGI: 11.7 µM
MOLT-4 leukemia
  GI50: 1460 nM
  TGI: 3.82 µM
NCI-H23 lung
  GI50: 1790 nM
  TGI: 3.94 µM
CAKI-1 renal
  GI50: 18.9 µM
  TGI: 41.2 µM
EKVX NSCLC
  GI50: 18.7 µM
  TGI: 34.8 µM
SN12C renal
  GI50: 1810 nM
  TGI: 3.83 µM
TK-10 renal
  GI50: 22.6 µM
  TGI: 37.4 µM
CCRF-CEM leukemia
  GI50: 2140 nM
  TGI: 5.27 µM
UO-31 renal
  GI50: 6.81 µM
  TGI: 20.1 µM
COLO 205 colon
  GI50: 17.9 µM
  TGI: 32.4 µM
UACC-257 melanoma
  GI50: 15.1 µM
  TGI: 28.9 µM
RXF 393 renal
  GI50: 13.1 µM
  TGI: 25.9 µM
SR leukemia
  GI50: 2400 nM
  TGI: 5.92 µM
HCT-15 colon
  GI50: 1880 nM
  TGI: 3.84 µM
NCI-H522 lung
  GI50: 17.7 µM
  TGI: 32.8 µM
MALME-3M melanoma
  GI50: 1660 nM
  TGI: 3.06 µM
PC-3 prostate
  GI50: 12.7 µM
  TGI: 29.8 µM
HCT-116 colon
  GI50: 2010 nM
  TGI: 4.18 µM
HT29 colon
  GI50: 2810 nM
  TGI: 6.27 µM
OVCAR-4 ovarian
  GI50: 12.6 µM
  TGI: 25.2 µM
NCI-H460 lung
  GI50: 2920 nM
  TGI: 7.14 µM

## CC(NC(=O)Cc1ccc(OP(=O)(OCc2ccc([N+](=O)[O-])o2)N(C)CCCCCl)cc1)c1ccc(OCC2CCCCC2)c(C(N)=O)c1 (stereo not drawn)
RPMI-8226 leukemia
  TGI: 2.44 µM
MCF7 breast
  TGI: 6.75 µM
M14 melanoma
  TGI: 4.64 µM
SK-MEL-2 melanoma
  TGI: 5.89 µM
786-0 renal
  TGI: 10.8 µM
HL-60(TB) leukemia
  TGI: 5.06 µM
LOX IMVI melanoma
  TGI: 3.28 µM
HCC-2998 colon
  TGI: 2.98 µM
T-47D breast
  TGI: 3.84 µM
SF-295 CNS
  TGI: 4.84 µM
SK-MEL-28 melanoma
  TGI: 3.33 µM
OVCAR-8 ovarian
  TGI: 16 µM
NCI-H226 lung
  TGI: 7.09 µM
NCI/ADR-RES ovarian
  TGI: 94.3 µM
OVCAR-5 ovarian
  TGI: 8.78 µM
A498 renal
  TGI: 7.39 µM
IGROV1 ovarian
  TGI: 4.76 µM
A549 NSCLC
  TGI: 4.68 µM
UACC-62 melanoma
  TGI: 3.28 µM
SK-OV-3 ovarian
  TGI: 11 µM
U251 CNS
  TGI: 5.28 µM
SW-620 colon
  TGI: 10.2 µM
OVCAR-3 ovarian
  TGI: 3.75 µM
SF-539 CNS
  TGI: 4.09 µM
MDA-MB-435
  TGI: 3.95 µM
DU-145 prostate
  TGI: 14.4 µM
KM12 colon
  TGI: 5.91 µM
SF-268 CNS
  TGI: 6.27 µM
HOP-62 NSCLC
  TGI: 6.07 µM
MDA-MB-231 breast
  TGI: 4.37 µM
SNB-19 CNS
  TGI: 22.1 µM
ACHN renal
  TGI: 37.1 µM
SK-MEL-5 melanoma
  TGI: 2.97 µM
MOLT-4 leukemia
  TGI: 4.38 µM
NCI-H23 lung
  TGI: 5.12 µM
CAKI-1 renal
  TGI: 20.7 µM
SN12C renal
  TGI: 4.26 µM
TK-10 renal
  TGI: 15.6 µM
MDA-N
  TGI: 3.94 µM
CCRF-CEM leukemia
  TGI: 6.14 µM
K-562 leukemia
  TGI: 9.23 µM
UO-31 renal
  TGI: 8.45 µM
COLO 205 colon
  TGI: 3.1 µM
UACC-257 melanoma
  TGI: 3.27 µM
RXF 393 renal
  TGI: 4.74 µM
SR leukemia
  TGI: 4.38 µM
HCT-15 colon
  TGI: 6.44 µM
NCI-H522 lung
  TGI: 5.18 µM
MALME-3M melanoma
  TGI: 4.42 µM
PC-3 prostate
  TGI: 19.6 µM
HCT-116 colon
  TGI: 4.52 µM
HT29 colon
  TGI: 3.18 µM
OVCAR-4 ovarian
  TGI: 6.31 µM
NCI-H460 lung
  TGI: 13.1 µM

## COc1c(C)c(C/C=C(\C)CC/C=C(\C)CC/C=C(\C)CCC=C(C)C)c(OC)c(OC)c1OC
MCF7 breast
  TGI: > 100 µM
M14 melanoma
  TGI: > 100 µM
SK-MEL-2 melanoma
  TGI: > 100 µM
786-0 renal
  TGI: > 100 µM
HS 578T breast
  TGI: > 100 µM
LOX IMVI melanoma
  TGI: > 100 µM
HCC-2998 colon
  TGI: > 100 µM
SF-295 CNS
  TGI: > 100 µM
OVCAR-8 ovarian
  TGI: > 100 µM
SNB-75 CNS
  TGI: > 100 µM
NCI/ADR-RES ovarian
  TGI: > 100 µM
OVCAR-5 ovarian
  TGI: > 100 µM
IGROV1 ovarian
  TGI: > 100 µM
A549 NSCLC
  TGI: > 100 µM
UACC-62 melanoma
  TGI: > 100 µM
SK-OV-3 ovarian
  TGI: > 100 µM
U251 CNS
  TGI: > 100 µM
SW-620 colon
  TGI: > 100 µM
BT-549 breast
  TGI: > 100 µM
OVCAR-3 ovarian
  TGI: > 100 µM
SF-539 CNS
  TGI: > 100 µM
MDA-MB-435
  TGI: > 100 µM
HOP-92 NSCLC
  TGI: > 100 µM
DU-145 prostate
  TGI: > 100 µM
KM12 colon
  TGI: > 100 µM
SF-268 CNS
  TGI: > 100 µM
HOP-62 NSCLC
  TGI: > 100 µM
MDA-MB-231 breast
  TGI: > 100 µM
SNB-19 CNS
  TGI: > 100 µM
ACHN renal
  TGI: > 100 µM
SK-MEL-5 melanoma
  TGI: > 100 µM
MOLT-4 leukemia
  TGI: > 100 µM
NCI-H23 lung
  TGI: > 100 µM
CAKI-1 renal
  TGI: > 100 µM
EKVX NSCLC
  TGI: > 100 µM
SN12C renal
  TGI: > 100 µM
TK-10 renal
  TGI: > 100 µM
MDA-N
  TGI: > 100 µM
CCRF-CEM leukemia
  TGI: > 100 µM
K-562 leukemia
  TGI: > 100 µM
UO-31 renal
  TGI: > 100 µM
COLO 205 colon
  TGI: > 100 µM
UACC-257 melanoma
  TGI: > 100 µM
RXF 393 renal
  TGI: > 100 µM
SR leukemia
  TGI: > 100 µM
HCT-15 colon
  TGI: > 100 µM
NCI-H522 lung
  TGI: > 100 µM
PC-3 prostate
  TGI: > 100 µM
HCT-116 colon
  TGI: > 100 µM
HT29 colon
  TGI: > 100 µM
OVCAR-4 ovarian
  TGI: > 100 µM
NCI-H460 lung
  TGI: > 100 µM
